Here are results for six compounds from PubChem BioAssay (NCI).

Holding throughout (test): growth of human tumour cells (NCI), 48 h
Assay [1] deals with UACC-257 melanoma.
Assay [2] concerns HOP-62 NSCLC.
For assay [3], the system named is A498 renal.
The subject of assay [4] is K-562 leukemia.
For assay [5], the system named is MALME-3M melanoma.
Assay [6] deals with EKVX NSCLC.
Assay [7] concerns OVCAR-4 ovarian.
The subject of assay [8] is SN12C renal.
Assay [9] relates to T-47D breast.
The test system of assay [10] is SNB-19 CNS.
Assay [11] relates to MCF7 breast.
For assay [12], the system named is UO-31 renal.
Assay [13] deals with SF-295 CNS.
In assay [14] the test system is NCI-H522 lung.
The test system of assay [15] is RXF 393 renal.
Assay [16] deals with NCI-H23 lung.
Assay [17] concerns SK-OV-3 ovarian.

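All cell lines were grown in 96-well plates and treated with compound for 48 hours. TGI: concentration producing complete growth inhibition.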

In the case of `S=c1[nH]nc(NNc2ccccc2)n1Nc1ccccc1`, the TGI in [1] is above 69.3 µM; in assay [2] it was above 100 µM; in assay [3] it was above 100 µM; in assay [4] it was above 100 µM; in [5] it was above 100 µM; in assay [6] it was above 100 µM. Also, the TGI in assay [7] was above 100 µM; in assay [8], above 100 µM; in assay [9], above 59.6 µM; in assay [10], above 100 µM; in [11] it was above 100 µM; in [12] it was above 100 µM. Besides, the TGI in assay [13], in assay [14], in assay [15], in assay [16] and in assay [17] was above 100 µM throughout.

For the compound `COc1ccc(CCNCCCC2c3ccccc3-c3ccccc32)cc1OC`, the TGI in assay [1] was 28.1 µM; in assay [2], 30 µM; in assay [3], 19.5 µM; in assay [4], 49.2 µM; in [5] it was 27 µM; in assay [6], 30.8 µM. Also, the TGI was 30.5 µM in assay [7]; 28.7 µM in assay [8]; 34.3 µM in assay [9]; 31.8 µM in assay [10]; 20.3 µM in assay [11]; 24.4 µM in [12]. Further, the TGI in assay [13] amounted to 29.2 µM; in assay [14], 30.1 µM; in [15], 26.1 µM; in assay [16], 28.9 µM; in assay [17] it was 32.9 µM.

As for `CC(=O)c1cc(C)n2c1CS[C@@H]2c1ccccc1`, the TGI in [1], in [2], in [3], in assay [4], in assay [5] and in assay [6] was above 100 µM throughout. Also, the TGI in assay [7], in assay [8], in [9], in assay [10], in [11] and in assay [12] was above 100 µM each time. Also, the TGI in assay [13] is above 100 µM; in assay [14], above 100 µM; in assay [15] it was 91.6 µM; in [16], above 100 µM; in assay [17], above 100 µM.

`S=C1N=C(Cl)/C(=C\c2ccccc2)N1`: the TGI in assay [1], in [2], in assay [3], in assay [4], in assay [5] and in [6] was above 100 µM each time. In addition, the TGI in assay [7], in [8], in [9], in assay [10], in [11] and in [12] was above 100 µM each time. Moreover, the TGI in assay [13], in assay [14], in assay [15], in assay [16] and in assay [17] was above 100 µM in each case.

Consider `COc1ccccc1CNC(=O)[C@H](Cc1ccc(O)cn1)NC(C)=O`, for which the TGI in [1], in assay [2], in [3], in [4], in assay [5] and in assay [6] was above 100 µM each time. Further, the TGI in assay [7], in [8], in assay [9], in [10], in assay [11] and in assay [12] was above 100 µM each time. The TGI in assay [13], in [14], in assay [15], in [16] and in assay [17] was above 100 µM throughout.

For `CC(=O)O[C@@H](C1C[C@@H](C)[C@H]2[C@@](O)(O1)[C@H](O)[C@@]1(C)C3=CC[C@H]4C(C)(C)[C@@H](OC5OCC(O)C(O)C5O)CC[C@@]45C[C@@]35CC[C@]21C)C(C)(C)O` (some centres not stated), the TGI in [1] was 38.4 µM; in assay [2] it was 70.7 µM; in assay [3], 63 µM; in assay [4], above 100 µM; in assay [5] it was 51 µM; in [6], 61.6 µM. For the same compound, the TGI in assay [7] is above 100 µM; in assay [8], 54.8 µM; in assay [9], 67.7 µM; in assay [10] it was above 100 µM; in [11], 50.3 µM; in assay [12] it was 62.2 µM. For the same compound, the TGI was 48.1 µM in assay [13]; 36.9 µM in assay [14]; 36.9 µM in [15]; 49 µM in [16]; 63.9 µM in assay [17].
